Columns and labels:
Test in all cases: relative viability (nuclei count vs DMSO), 5 days (fraction); higher = more cells survive
[1] = compound: C1CSC2=C(C(=O)N1)SC3=C2C=C(C=C3)O [kb NB 142-70] + Nc1ncn([C@H]2C[C@H](O)[C@@H](CO)O2)c(=O)n1 [Decitabine] (partner 2 µM)
Procedure, shortened: (§1)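 After 5 days of treatment, lung cancer cells in 1536-well plates were fixed and stained in a single step (final 0.05% Triton X-100, 1% formaldehyde, 1 ug/ml Hoechst) and their nuclei counted on 4× images. Treatment had been applied by pin tool the day after seeding as one drug alone or as a fixed anchor-drug dose with five library-drug doses (not always all listed) in √10 steps. Relative viability is the nuclei count of treated wells divided by that of vehicle wells, and values are medians of duplicate plates.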

[2] = compound: NCC(=O)Nc1ccc(-n2nc(C(F)(F)F)cc2-c2ccc3c(ccc4ccccc43)c2)cc1 + COc1cccc2cc(-c3nc([C@H]4CC[C@H](C(=O)O)CC4)n4ncnc(N)c34)[nH]c12 [OSI-027] (partner 0.5 µM)
Procedure, shortened: as §1

[3] = compound: NCC(=O)Nc1ccc(-n2nc(C(F)(F)F)cc2-c2ccc3c(ccc4ccccc43)c2)cc1 + C[C@@H](Oc1cc(-c2cnn(C3CCNCC3)c2)cnc1N)c1c(Cl)ccc(F)c1Cl [Crizotinib] (partner 1 µM)
Procedure, shortened: as §1

[4] = compound: NCC(=O)Nc1ccc(-n2nc(C(F)(F)F)cc2-c2ccc3c(ccc4ccccc43)c2)cc1 + O=C(c1cc(Cc2n[nH]c(=O)c3ccccc23)ccc1F)N1CCN(C(=O)C2CC2)CC1 [Olaparib] (partner 8 µM)
Procedure, shortened: as §1

Cell Line	relative viability ([1]; first compound 0.1 µM)	relative viability ([1]; first compound 1 µM)	relative viability ([1]; first compound 3.162 µM)	relative viability ([2]; first compound 0.02 µM)	relative viability ([2]; first compound 0.06325 µM)	relative viability ([2]; first compound 0.2 µM)	relative viability ([2]; first compound 0.6325 µM)	relative viability ([2]; first compound 2 µM)	relative viability ([3]; first compound 0.02 µM)	relative viability ([3]; first compound 0.06325 µM)	relative viability ([3]; first compound 0.2 µM)	relative viability ([3]; first compound 0.6325 µM)	relative viability ([3]; first compound 2 µM)	relative viability ([4]; first compound 0.02 µM)	relative viability ([4]; first compound 0.06325 µM)	relative viability ([4]; first compound 0.2 µM)	relative viability ([4]; first compound 0.6325 µM)	relative viability ([4]; first compound 2 µM)
RERF-LC-KJ	0.681	0.664	0.482	0.542	0.608	0.515	0.644	0.583	0.867	0.845	0.847	0.791	0.809	0.98	0.97	1.01	0.985	0.897
LXF-289	0.392	0.369	0.365	0.67	0.801	0.787	0.819	0.713	0.834	0.821	0.799	0.823	0.779	1.05	1.11	1.03	1.04	1.07
PC-14	0.187	0.284	0.193	0.769	0.949	0.937	0.82	0.726	1.1	0.905	1.04	0.976	0.937	0.308	0.45	0.317	0.388	0.306
NCI-H650	0.309	0.283	0.267	0.508	0.524	0.541	0.443	0.524	0.728	0.809	0.72	0.653	0.802	0.395	0.415	0.421	0.399	0.396
NCI-H1666	0.76	0.712	0.603	0.932	0.836	0.945	0.845	0.861	1	0.904	1.16	0.854	0.982	0.734	0.83	0.824	0.747	0.776
NCI-H2085	0.55	0.522	0.448	0.688	0.908	0.654	0.691	0.802	0.862	0.901	0.938	0.865	0.819	0.853	0.802	0.801	0.829	0.812
NCI-H1734	0.525	0.46	0.348	0.561	0.601	0.577	0.594	0.552	0.801	0.611	0.788	0.739	0.683	0.629	0.603	0.678	0.569	0.575
NCI-H2126	0.555	0.616	0.571	0.773	0.753	0.726	0.741	0.631	1	1	1.05	1.01	1.04	0.864	0.877	0.925	0.928	0.913
EMC-BAC-2	1.06	0.994	1.1	0.292	0.367	0.371	0.361	0.387	0.737	0.763	0.797	0.712	0.765	0.433	0.514	0.539	0.483	0.5
NCI-H1993	0.63	0.589	0.514	0.545	0.493	0.541	0.483	0.542	0.939	0.987	0.822	1.03	0.902	1.01	1.01	1.06	0.915	1.08
NCI-H520	0.506	0.43	0.357	0.238	0.265	0.296	0.243	0.234	0.787	1.09	0.889	0.687	0.694	0.404	0.285	0.377	0.339	0.334
NCI-H647	0.383	0.477	0.36	0.494	0.681	0.67	0.573	0.773	1.17	1.14	1.13	0.976	0.747	0.593	0.573	0.657	0.486	0.483
NCI-H1792	0.536	0.536	0.458	0.657		0.824	0.722	0.803	1.01	1.02	0.976	1	0.945	0.597	0.518	0.404	0.385	0.511
SK-LU-1	0.589	0.505	0.417	0.343	0.358	0.441	0.313	0.374	0.854	0.949	1.11	0.831	1.03	0.477	0.463	0.589	0.479	0.556
ChaGo-K-1	0.509	0.515	0.461	0.475	0.661	0.468	0.592	0.548	1.14	1.08	1.01	1.05	1.03	0.443	0.488	0.388	0.443	0.405
NCI-H1650	0.492	0.408	0.442	0.7	0.806		0.73	0.634	1.11	1.14	0.836	1.08	1.19	0.802	0.89	0.875	0.827	0.774
NCI-H2009	0.371	0.38	0.375	0.573	0.613	0.703	0.604	0.609	1.06	1.03	1.07	1.09	1.04	0.681	0.72	0.75	0.657	0.679
LOU-NH91	0.83	0.854	0.61	0.752	0.737	0.711	0.716	0.735	0.725	0.761	0.754	0.565	0.756	0.967	0.959	0.933	0.922	0.995
